Structures can show the parent of a compound that is named as a salt. Where two headings read alike, the source gives them in different places. Values belong to the molecule of their own block, whether it stands above or below them.
Key:
Thromboxane B2 (TXB2) = assay: Inhibition of thromboxane B2 (TXB2) in calcium ionophore A-23187-stimulated human blood; type: cell-based; conditions: read-out: % Inhibition TXB2; for inhibition at 1 µM: Table 3, 1 μM; for inhibition at 3 µM: Table 3, 3 μM
Leukotriene B4 (LTB4) = assay: Inhibition of leukotriene B4 (LTB4) in calcium ionophore A-23187-stimulated human blood; type: cell-based; conditions: Homo sapiens, read-out: % Inhibition LTB4
LTA4 hydrolase [1] = molecular target: T1, LTA4 hydrolase (Homo sapiens, UniProt P09960); assay: Inhibition of LTA4 hydrolase, amidase (aminopeptidase) activity, L-alanyl p-nitroanilide as substrate; type: biochemical; design: LTA4 hydrolase purified from human leukocytes; from tissue; host or cells: human leukocytes (purified enzyme); conditions: for IC50: L-alanyl p-nitroanilide 1.5 mM, pH 8.0, thiols with 5 mM DTT
T1 sequence (P09960 1-611): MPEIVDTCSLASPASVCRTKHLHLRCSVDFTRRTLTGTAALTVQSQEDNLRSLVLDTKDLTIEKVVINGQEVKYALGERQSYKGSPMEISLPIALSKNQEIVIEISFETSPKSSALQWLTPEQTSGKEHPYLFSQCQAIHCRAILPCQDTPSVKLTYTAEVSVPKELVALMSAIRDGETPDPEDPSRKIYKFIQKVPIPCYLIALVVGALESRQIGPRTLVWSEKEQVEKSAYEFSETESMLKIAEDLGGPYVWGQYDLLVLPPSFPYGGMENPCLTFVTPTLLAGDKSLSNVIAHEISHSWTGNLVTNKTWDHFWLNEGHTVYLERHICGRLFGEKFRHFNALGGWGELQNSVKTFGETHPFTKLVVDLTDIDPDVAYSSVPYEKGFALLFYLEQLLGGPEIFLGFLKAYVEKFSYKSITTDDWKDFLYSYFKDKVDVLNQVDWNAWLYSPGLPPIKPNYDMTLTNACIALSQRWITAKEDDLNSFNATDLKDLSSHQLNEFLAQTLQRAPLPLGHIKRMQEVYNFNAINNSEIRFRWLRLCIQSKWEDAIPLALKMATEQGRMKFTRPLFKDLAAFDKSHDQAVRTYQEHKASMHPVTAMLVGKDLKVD

LTA4 hydrolase [2] = molecular target: T1, LTA4 hydrolase; conditions: literature; cited from earlier work
LTA4 hydrolase [3] = molecular target: T1, LTA4 hydrolase; assay: Kinetic parameters of LTA4 hydrolase-catalyzed hydrolysis of LTA4 and amide substrates; type: biochemical
Method: Several amino acid amides were assayed as substrates for LTA4 hydrolase. Yuan et al., Bioorg. & Med. Chem. Lett., 1:551 (1991).
^a Determined in 50 mM TrisCl, pH 7.6, in the presence of 0.1 M NaCl, […]

LTA4 hydrolase [4] = molecular target: T1, LTA4 hydrolase; conditions: LTA4 as substrate, Radmark et al., cited from earlier work
[5] = molecular target: T2, LTA4 hydrolase (epoxide hydrolase activity) (Homo sapiens, UniProt P09960); assay: Inhibition of epoxide hydrolase activity of LTA4 hydrolase, LTA4 as substrate; type: biochemical
T2 construct: obtained from human leukocytes and was purified to apparent homogeneity; from tissue; host or cells: human leukocytes (purified to apparent homogeneity)
T2 sequence (P09960 1-611): T1 sequence (P09960 1-611)

[6] = Table 1, 50 mM TrisCl, pH 7.6, 0.1 M NaCl

Structure (SMILES): CC(C)C[C@H](NC(=O)[C@@H](O)[C@@H](N)Cc1ccccc1)C(=O)O [Compound 7, (2S, 3S)-AHPA-L-Leu]
inhibition at 1 µM (Thromboxane B2 (TXB2)): 21% | inhibition at 3 µM (Thromboxane B2 (TXB2)): 15% | inhibition at 10 µM (Thromboxane B2 (TXB2); Table 3, 10 μM): 24% | inhibition at 10 µM (Thromboxane B2 (TXB2); Table 4, 10 μM): 0% | inhibition at 3 µM (Leukotriene B4 (LTB4); Table 3): 10% | inhibition at 10 µM (Leukotriene B4 (LTB4); Table 3): 37% | inhibition at 10 µM (Leukotriene B4 (LTB4); Table 4): 25%

IC50 (LTA4 hydrolase [1]): 0.55 µM
Structure (SMILES): NC[C@@H](N)Cc1ccc(OCc2ccc3ccccc3c2)cc1 [Compound 60, (2S) -3-[4-(2-Naphthylmethyloxy)phenyl]-1,2-diamino-propane HCl]

IC50 (LTA4 hydrolase [1]): 100 µM
Structure (SMILES): N[C@H](Cc1ccccc1)[C@H](O)C(=O)NCCC(=O)O [Compound 9]

inhibition of LTA4 hydrolase (in words) (LTA4 hydrolase [1]): poor or no inhibition
Structure (SMILES): COC(=O)[C@H](O)[C@@H](N)Cc1ccccc1 [Compound 1, (2R, 3S)-AHPA methyl ester]

IC50 (LTA4 hydrolase [1]): 0.5 µM
Structure (SMILES): CC(C)C[C@H](NC(=O)C(=O)[C@@H](N)Cc1ccccc1)C(=O)O [Compound 22]
inhibition of LTA4 hydrolase (in words) (LTA4 hydrolase [1]): better than the corresponding α-(S)--OH derivative Compound 7

Structure (SMILES): COC(=O)C(S)[C@@H](N)Cc1ccccc1 (stereo partly shown) [Compound 11]
inhibition of LTA4 hydrolase (in words) (LTA4 hydrolase [1]): poor inhibitors

IC50 (LTA4 hydrolase [1]): 3 µM
Structure (SMILES): N[C@@H](Cc1ccc(OCc2ccccc2)cc1)C(=O)c1cccc(C(=O)O)c1 [Compound 28]
inhibition at 10 µM (Thromboxane B2 (TXB2); Table 4, 10 μM): 0% | inhibition at 10 µM (Leukotriene B4 (LTB4); Table 4): 16%

IC50 (LTA4 hydrolase [1]): 140 µM
Structure (SMILES): N[C@@H](Cc1ccccc1)[C@H](O)Cc1ccccc1 [Compound 44, (2R, 3S)-1,4-Diphenyl-2-hydroxy-3-amino-butane HCl]

inhibition of LTA4 hydrolase (in words) (LTA4 hydrolase [1]): loss of their inhibition potency
Structure (SMILES): N[C@@H](Cc1ccccc1)[C@H](O)C(=O)O [Compound 5, (2S,3S)-AHPA]

IC50 (LTA4 hydrolase [1]): 80 µM
Structure (SMILES): N[C@@H](Cc1ccccc1)[C@H](O)C(=O)NCCC(=O)O [Compound 10, (2S, 3S) -AHPA-β-Ala]
inhibition at 1 µM (Thromboxane B2 (TXB2)): 12% | inhibition at 3 µM (Thromboxane B2 (TXB2)): 21% | inhibition at 10 µM (Thromboxane B2 (TXB2); Table 3, 10 μM): 19% | inhibition at 1 µM (Leukotriene B4 (LTB4); Table 3, 1 μM): 14% | inhibition at 3 µM (Leukotriene B4 (LTB4); Table 3): 39% | inhibition at 10 µM (Leukotriene B4 (LTB4); Table 3): 15%

Structure (SMILES): CCCCCCCC\C=C/C=C/C=C/[C@@H]1O[C@H]1CCCC(=O)O [LTA3]
inhibition of LTA4 hydrolase, type of inhibition (in words) (LTA4 hydrolase [2]): irreversibly inhibited

acceptance as substrate for LTA4 hydrolase (in words) (LTA4 hydrolase [3]): not acceptable | Vmax (LTA4 hydrolase [3]; [6]): 0 nmol/min/mg
Structure (SMILES): C[C@@H](N)C(=O)Nc1ccc([N+](=O)[O-])cc1 [D-Ala p-nitroanilide, D-Alanine p-nitroanilide]

kcat /Km (LTA4 hydrolase [3]; [6]): 9.0 × 10^4 M^- x^-1
Structure (SMILES): CCCCC/C=C\C\C=C/C=C/C=C/[C@@H]1O[C@H]1CCCC(=O)O [LTA4, 5(S)-5,6-oxido-7,9-trans-11,14-cis-eicosatetraenoic acid]
inhibition of LTA4 hydrolase, type of inhibition (in words) (LTA4 hydrolase [2]): irreversibly inhibited | Vmax reported for native LTA4 hydrolase (LTA4 hydrolase [4]): 1.7 to 3.0 µmol/min/mg | Km (LTA4 hydrolase [4]; native LTA4 hydrolase, read-out: Km reported for native LTA4 hydrolase): 7 to 30 µM

inhibition of the enzyme at 1 mM concentration (in words) (LTA4 hydrolase [1]; 1 mM): did not inhibit the enzyme
Structure (SMILES): CCOC(=O)CC(F)(F)C(=O)/C=C/c1ccccc1 [Compound 17]

Structure (SMILES): COC(=O)C(S)[C@H](N)Cc1ccccc1 (stereo partly shown) [Compound 12]
inhibition of LTA4 hydrolase (in words) (LTA4 hydrolase [1]): poor inhibitors

inhibition of LTA4 hydrolase (in words) (LTA4 hydrolase [1]): no inhibition activity
Structure (SMILES): COC(=O)[C@@H](O)[C@H](Cc1ccccc1)NC(=O)OC(C)(C)C [N-Boc-2S, 3S)-AHPA methyl ester, N-Boc-(2S, 3S) -AHPA methyl ester]

IC50 [5]: 240 µM
Structure (SMILES): C[C@H](CS)C(=O)N1CCC[C@H]1C(=O)O [Captopril, reference compound]
inhibition of LTA4 hydrolase, type of inhibition (in words) (LTA4 hydrolase [2]): reversible inhibitors

IC50 (LTA4 hydrolase [1]): 20 µM
Structure (SMILES): N[C@@H](Cc1ccccc1)C(=O)CCCC(=O)O [Compound 45, (6S) -5-Oxo-6-amino-7-phenyl-heptanoic acid HCl]
inhibition at 10 µM (Thromboxane B2 (TXB2); Table 4, 10 μM): 12% | inhibition at 10 µM (Leukotriene B4 (LTB4); Table 4): 11%

Reference: patent US5455271A, “Tight-binding inhibitors of leukotriene A4 hydrolase” (The Scripps Research Institute, priority 1993, dated 1995)
